Publication PMC6271933, “Evaluation of the Toxicity of 5-Aryl-2-Aminoimidazole-Based Biofilm Inhibitors against Eukaryotic Cell Lines, Bone Cells and the Nematode Caenorhabditis elegans” (Molecules, 2014)
pIC50: −log10 of the molar value. Values joined by “and” are separate entries in the source; they are usually repeats but may differ in a detail not shown here. Identical values can stand only once.

Experiments:
[1] = system: S. Typhimurium biofilm; conditions: concentration preventing biofilm formation (at 25 °C) by 50%; as previously reported ref 13, 14, 15, 16; read-out: BIC50 S. Typhimurium; cited from earlier work
[2] = system: murine leukemia (L1210); experiment: Cytostatic activity against tumor cell lines (cell number by Coulter counter); format: cell-based; conditions: Mus musculus, L1210, 48 h; concentration inhibiting cell proliferation by 50%; two days incubation; mean of three repeats
Protocol: (§1) The IC50 was defined as the compound concentration required to inhibit cell proliferation by 50%. The therapeutic index (TI) was calculated as the ratio of the compound concentration producing toxicity (IC50) to the concentration needed to exert the desired ‘therapeutic’ effect on biofilms of Salmonella and Pseudomonas, indicated by the BIC50 (dose needed to prevent biofilm formation by 50%). The higher the therapeutic index, the broader the safety window of the compound.
(§2) Murine leukemia (L1210), human T-lymphocyte (CEM) and human cervix carcinoma (HeLa) were suspended at 300,000–500,000 cells/mL of culture medium, and 100 µL of a cell suspension was added to 100 µL of an appropriate dilution of the test compounds in 200 µL-wells of 96-well microtiter plates. After incubation at 37 °C for two (L1210), three (CEM) or four (HeLa) days, the cell number was determined using a Coulter counter. The IC50 was defined as the compound concentration required to inhibit cell proliferation by 50%.

[3] = system: human T-lymphocyte (CEM); experiment: as above; format: cell-based; conditions: 72 h, concentration inhibiting cell proliferation by 50%, three days incubation, mean of three repeats
Protocol: as §1, §2

[4] = system: human cervix carcinoma (HeLa); experiment: as above; format: cell-based; conditions: 96 h, concentration inhibiting cell proliferation by 50%, four days incubation, mean of three repeats
Protocol: as §1, §2

[5] = system: P. aeruginosa biofilm; conditions: concentration preventing biofilm formation (at 25 °C) by 50%; as previously reported ref 13, 14, 15, 16; read-out: BIC50 P. aeruginosa; cited from earlier work
[6] = system: C. elegans; format: in vivo, Caenorhabditis elegans; conditions: for C. elegans % survival at 25 µM: after 7 days relative to viability at day 0, mean of at least two repeats
Protocol: Eggs of a double mutant (glp-4Dsek-1D) of C. elegans were grown on NGM/OP50 agar plates (NGM agar plates on the surface inoculated with 100 µL of an overnight culture of OP50 Escherichia coli and stored at 4 °C until use) at 25 °C until all nematodes had reached the L4 stage. Worms were collected and washed with M9 buffer (3 g/L KH2PO4, 6 g/L Na2HPO4, 5 g/L NaCl, 1 mM MgSO4). For toxicity testing, 40 to 50 worms were suspended in 250 μL M9 (supplemented with 10 µg/mL cholesterol, 75 µg/mL ampicillin and 100 µg/mL kanamycin) buffer in each well of 24-well microtiter plates, in the presence or absence (0.5% DMSO control) of 25, 100 or 200 µM of the test compounds and grown for 7 days at 25 °C. The percentage survival of the worms in the presence or absence of anti-biofilm compounds was calculated after 7 days relative to their viability at day 0.

[7] = system: HMO2, HepG2, HeLa and mouse lymphoma cells; design: method as in PMID 12193030, PMID 15165143, PMID 17822294; conditions: including HMO2, HepG2, HeLa and mouse lymphoma cells; cited from earlier work

Structure (SMILES)	pIC50 [1]	pIC50 [2]	pIC50 [3]	pIC50 [4]	pIC50 [5]	C. elegans % survival at 25 µM [6]	cytotoxicity to a variety of cell lines [7]	effect on C. elegans survival at 100 µM ([6]; 100 µM, 7 days of exposure)	effect on C. elegans survival at 200 µM ([6]; 200 µM, 7 days of exposure)
c1ccc(-c2cnc(NC3CCCC3)[nH]2)cc1 [compound 20]	4.28	4.56	3.53	4.56	4.47	98.1%	–	–	–
COc1ccc(Cc2[nH]c(=N)n(C)c2Cc2cc(OC)c(O)c(OC)c2)cc1 [2h, naamine G]	–	–	–	–	–	–	cytotoxic	–	–
Nc1ncc(-c2ccccc2)[nH]1 [compound 1]	3.89	4.20	4.03	3.84	4.14	89.8%	–	none of the compounds significantly affect	do not significantly affect survival
COc1ccc(Cc2nc(N)n(C)c2Cc2ccc(O)c(OC)c2)cc1 [2g, naamine F]	–	–	–	–	–	–	cytotoxic	–	–
COc1ccc(Cc2nc(N)n(C)c2Cc2cc(O)c(OC)c(OC)c2)cc1 [2e, naamine C]	–	–	–	–	–	–	cytotoxic	–	–
COc1cccc(CCn2c(-c3ccc(Cl)c(Cl)c3)cnc2N)c1 [compound 17]	< 3.40	5.16	5.07	5.18	–	–	–	–	–
Nc1ncc(-c2ccc(-c3ccccc3)cc2)n1C1CCCC1 [compound 11]	5.12	5.37	5.54	5.09	3.45	–	–	–	–
COc1ccc(Cn2cc(Cc3ccc(OC)c(OC)c3)nc2/N=C2/NC(=O)N(C)C2=O)cc1 [2i, isonaamidine E]	–	–	–	–	–	–	cytotoxic	–	–
Cc1ccc(-c2nc(N)[nH]c2-c2ccc(Cl)cc2)cc1 [compound 32]	4.89	4.91	4.99	5.02	–	–	–	–	–
CCCCNc1ncc(-c2ccc(Cl)cc2)[nH]1 [compound 21]	–	4.40	3.43	4.46	–	–	–	–	–
CCCCCOc1ccc(Cc2nc(N)n(Cc3ccccc3)c2-c2ccc(C)cc2)cc1 [compound 35]	4.99	5.07	5.08	4.83	4.56	–	–	–	–
CCCCCNc1ncc(-c2ccc(Cl)cc2)[nH]1 [compound 23]	< 3.40	4.66	3.49	4.70	~5.20 and 5.20	–	–	–	–
CCCCCCCCn1c(-c2ccc(SC)cc2)cnc1N [compound 15, N1-octyl-5-[4-SMePh]-2AI]	5.17	5.39	5.14	5.20	5.55	–	–	–	–
CCCCNc1ncc(-c2ccccc2)[nH]1 [compound 18]	4.60	4.33	3.18	4.71	4.50	–	–	–	–
CC(C)CNc1ncc(-c2ccc(Br)cc2)[nH]1 [compound 26]	5.54	4.50	3.51	4.65	5.92	–	–	–	–
Nc1ncc(-c2ccc(-c3ccccc3)cc2)n1C1CCCCCC1 [compound 12]	~4.90 and 4.90	5.09	5.27	5.18	5.18	–	–	–	–
Clc1ccc(-c2cnc(NC3CCCC3)[nH]2)cc1Cl [compound 29]	5.24	4.12	3.81	4.10	5.10	–	–	–	–
CCCCCCCCn1c(-c2ccc(F)cc2)cnc1N [compound 14]	~4.97 and 4.97	5.46	5.14	5.07	5.31	–	–	–	–
CCCCCCCn1c(-c2ccc(-c3ccccc3)cc2)cnc1N [compound 9]	5.03	5.12	5.09	5.06	4.60	–	–	–	–
